From patent US7550425B2, “Diuretic peptide conjugates” (Zealand Pharma A/S, priority 2000, dated 2009)

Experiments:
[1] = system: cirrhotic rats; experiment: Renal responses in rats with liver cirrhosis induced by common bile duct ligation and sham-operated controls; format: in vivo, rat; settings: i.v. bolus 65 nmol/kg
Method: Rats with liver cirrhosis induced by common bile duct ligation develop avid sodium and water retention and ascites within 2-4 weeks. The disturbed sodium and water balance in cirrhotic rats is in agreement with the pivotal clinical findings of edema and ascites in patients with liver cirrhosis. To examine the efficacy of Compound 1 in an experimental model of an edema-forming state, the diuretic response to an acute i.v. bolus injection of Compound 1 (65 nmol/kg) was evaluated in rats with liver cirrhosis induced by common bile duct ligation 4 weeks earlier. Prior to the experiments, rats were instrumented with chronic catheters in the urinary bladder, and in the femoral vein and artery. Renal responses to Compound 1 were compared with responses in sham-operated control rats. […] Relative changes in urine flow rate, sodium and potassium excretion after i.v. administration of 65 nmol/kg in sham-operated control animals are summarized in FIG. 7.
Changes in urine flow rate, free water clearance, fractional sodium excretion and fractional potassium excretion after i.v. administration of 65 nmol/kg in sham-operated control and cirrhotic animals are summarized in FIG. 8.

[2] = In vitro stability in heparin stabilised mouse plasma; format: in vitro ADME; settings: heparinised mouse plasma, 37° C., read-out: half-life t½ of degradation
Method: Degradation of peptides is almost exclusively seen in the presence of enzymes, e.g. in the bloodstream. An important feature of a putative drug is whether it is quickly degraded in vivo or whether it is able to conduct its effects over a longer period of time. To be able to examine the stability of the peptide conjugates of the present invention degradation was tested in heparin stabilised mouse plasma (obtained from Harlan Seralab, UK).
The stability studies were run in triplicate. 100 μL of a 1 mg/mL solution of the test compound (peptide conjugate) was added to an Eppendorf tube, containing 900 μL plasma, incubated at 37° C. Immediately after addition, a sample of 100 μL was removed and added to an Eppendorf tube, containing 10 μL of extraction solution (50% TFA (trifluoroacetic acid) in MeCN, v/v). This sample constitutes t=0. […] The samples are centrifuged at 20,000×g, and the supernatant was transferred to vials and analysed by high-performance liquid chromatography (HPLC).
The analysis was performed on a HP1100 HPLC with a quaternary pump. The column used was a Vydac 201SP5215, and the apparatus comprises an autosampler, a column oven, a variable UV detector and a fluorescence detector. […] These values were transferred to Microsoft Excel, where half-lives (t½) and rate constant (kobs) for Ac-RYYRWK-NH2 (SEQ ID NO: 1) and Compound 1 were determined by fitting to the equation.

[3] = system: opioid (non-selective opiate, δ, κ, μ), vasopressin (V1a, V1b, V2) and 40 other receptor, uptake and ion channel binding sites; experiment: Receptor, uptake and ion channel binding panel; settings: 0.1, 10 and 1000 nM (opioid, vasopressin); 10 μM (other sites)
Method: In addition, Compound 1 has been tested in 5 opioid (non-selective opiate, δ, κ, μ, &ORL1), 3 vasopressin (V1a, V1b and V2) receptor binding assays at 0.1, 10, and 1000 nM as well as in 40 different receptor, uptake, and ion channel binding sites (A1, A2, α1, α2, β1, NE uptake, AT1, BZD, B2 (h), CCKA (˜CCK1), D1, D2, ETA(h), GABA, NMDA, H1, M, NK1(h), Y, N, opiate, PCP, 5-HT, 5-HT1B, 5-HT2A, 5-HT uptake, σ, V1) at 10 μM.

[4] = system: nociceptin-induced smooth muscle relaxation in mouse vas deferens; experiment: Mouse vas deferens assay: antagonism of nociceptin-induced relaxation (Schild pA2)
Method: The vas deferens from male NMRI albino mice weighing 30-40 g were placed in a SCHULER organ bath Type 809, Hugo Sachs Elektronik, Germany, and perfused with a 37° C., modified Krebs solution (NaCl 6,9 g/L, KCl 0.35 g/L, KH2PO4 0.16 g/L, NaHCO3 2.1 g/L, Glucose H2O 2.0 g/L, CaCl2 2.52 mL/L). The solution was gassed with carbogen (95% O2 and 5% CO2) throughout the experiment. The tissue was electrically stimulated through two silver electrodes directly in the organ bath using a HSE Stimulator I Type 215. Stimulation of the tissue was performed by applying a supramaximal voltage (15 Volts) in trains of 10 square pulses every 60 s, each of 1 ms duration with a frequency of […]. Concentration-response curves were performed by adding test substances that relax mouse vas deferens smooth muscles cumulatively to the organ baths. The test substances used in the assay were nociceptin in an isotonic saline solution, Compound 1 (as the trifluoroacetate in an isotonic saline solution), Compound 2 (as the trifluoroacetate in an isotonic saline solution), and the hexapeptide Ac-RYYRWK-NH2 (SEQ ID NO: 1) (as the trifluoroacetate in an isotonic saline solution).
The effects of Ac-RYYRWK-NH2 (SEQ ID NO: 1) and Compound 1 on nociceptin-induced relaxation in the mouse vas deferens assay were also tested. […] Using the Schild equation ^[7], the pA2 values which indicates affinity of a compound as an antagonist were calculated.

[5] = cirrhotic and sham-operated rats

Q: Which “renal responses, cirrhotic versus control rats” value [1] does the source give for “Ac-RYYRWKKKKKKK-NH2 [Compound 1, Ac-RYYRWKKKKKKK-NH2]” here?
A: renal responses were similar in cirrhotic and control rats

Q: And the “fractional excretion of sodium and potassium” value ([1]; FIG. 8)?
A: decrease in fractional excretion of sodium and potassium

Q: And the urine flow rate ([1]; FIG. 8)?
A: marked increase in urine flow rate

Q: What about the glomerular filtration rate [1, 5] of the same substance?
A: absence of changes in the glomerular filtration rate

Q: What about the “urinary excretion of sodium and potassium” value [1, 5] of the same substance?
A: decrease in urinary excretion of sodium and potassium

Q: And the half-life at 0.1 mg/mL [2]?
A: 5.97 h

Q: What about the “binding to other receptors than the ORL1 receptor” value [3] of the same substance?
A: none or only weak binding to other receptors than the ORL1 receptor

Q: What about the pA2 value ([4]; Schild equation, antagonism of nociceptin-induced relaxation, n = 4) of the same substance?
A: 9.5 (n = 4)

Q: What about the “fold more potent as an antagonist than Ac-RYYRWK-NH2” value ([4]; nociceptin-induced smooth muscle relaxation, MVD assay) of the same substance?
A: about 50 fold
